According to patent publication US20240059693A1, “FUSED BICYCLIC PYRAZOLE DERIVATIVES AND METHODS OF USE THEREOF FOR THE TREATMENT OF HERPESVIRUSES” (Merck Sharp & Dohme LLC, priority 2020, published 2024):
pEC50, pIC50: −log10 of the molar value. Read-outs that look alike come from different tables or passages of the source.

What was measured:
[1] = target: T1, Human cytomegalovirus DNA polymerase (Human cytomegalovirus, UniProt P08546); experiment: HCMV polymerase assay (AlphaLISA); assay type: biochemical; conditions: HCMV DNA polymerase 0.2 nM, 60 minutes at 37° C.; read-out: CMV (IC50)
T1 construct: made in house; host or cells: SF21 insect cells (baculovirus vector)
T1 sequence (P08546 whole entry): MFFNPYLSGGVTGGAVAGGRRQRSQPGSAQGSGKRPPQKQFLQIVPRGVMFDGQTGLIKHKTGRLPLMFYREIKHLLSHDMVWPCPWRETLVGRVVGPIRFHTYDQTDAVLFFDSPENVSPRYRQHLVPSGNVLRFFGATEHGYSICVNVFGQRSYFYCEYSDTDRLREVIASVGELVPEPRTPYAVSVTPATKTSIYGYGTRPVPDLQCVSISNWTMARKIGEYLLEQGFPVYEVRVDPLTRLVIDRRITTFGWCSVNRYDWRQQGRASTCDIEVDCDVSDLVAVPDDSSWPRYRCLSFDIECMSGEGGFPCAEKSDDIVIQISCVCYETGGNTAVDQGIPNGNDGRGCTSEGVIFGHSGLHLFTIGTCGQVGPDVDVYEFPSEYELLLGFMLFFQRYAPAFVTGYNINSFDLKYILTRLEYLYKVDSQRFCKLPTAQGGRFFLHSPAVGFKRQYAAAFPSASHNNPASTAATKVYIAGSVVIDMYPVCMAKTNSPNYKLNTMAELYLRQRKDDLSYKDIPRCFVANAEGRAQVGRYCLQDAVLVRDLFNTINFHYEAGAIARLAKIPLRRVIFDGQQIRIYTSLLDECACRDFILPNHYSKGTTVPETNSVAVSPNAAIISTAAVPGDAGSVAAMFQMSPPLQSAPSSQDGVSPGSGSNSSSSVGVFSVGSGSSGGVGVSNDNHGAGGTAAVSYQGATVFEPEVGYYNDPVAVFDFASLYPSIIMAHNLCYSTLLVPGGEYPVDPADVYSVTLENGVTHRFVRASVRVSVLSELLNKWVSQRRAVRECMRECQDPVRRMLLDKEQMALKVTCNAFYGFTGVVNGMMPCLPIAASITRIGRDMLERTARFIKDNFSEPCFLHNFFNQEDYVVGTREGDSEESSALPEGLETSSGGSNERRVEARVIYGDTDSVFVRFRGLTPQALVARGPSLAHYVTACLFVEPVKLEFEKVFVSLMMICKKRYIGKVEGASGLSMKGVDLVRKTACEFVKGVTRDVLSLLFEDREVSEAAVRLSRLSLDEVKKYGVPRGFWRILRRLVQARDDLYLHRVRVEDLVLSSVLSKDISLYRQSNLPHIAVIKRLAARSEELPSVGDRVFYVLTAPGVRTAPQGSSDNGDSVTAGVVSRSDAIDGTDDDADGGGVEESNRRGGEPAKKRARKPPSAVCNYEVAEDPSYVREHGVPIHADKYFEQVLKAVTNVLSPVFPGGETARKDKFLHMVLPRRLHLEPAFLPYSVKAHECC
Method in brief: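 Baculovirus/SF21-expressed polymerase (HCMV 0.2 nM; VZV 0.4 nM) pre-incubated 30 min at room temperature with compound in HEPES pH 7.5 buffer, then 60 min at 37 °C with 1.6 nM DIG-primer/template, sub-nM to 24 nM dNTPs and 0.8 nM biotin-dUTP. AlphaLISA detection; IC50 from 4-parameter fit.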

[2] = system: HCMV Strain AD169; experiment: Viral qPCR assay, HCMV in MRC-5 cells; assay type: cell-based, Human cytomegalovirus; conditions: read-out: CMV MRC5 Cell (EC50)
Method in brief: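 Viral genome copies, quantified by TaqMan qPCR with a plasmid standard curve after ~72 h infection of MRC-5 cells with AD169 at 0.05-0.1 pfu/cell, served as readout; PPIA normalisation used in one format. Compounds run as 10-point 3-fold series, in standard or 50% FBS media; EC50 by 4-parameter fit.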

[3] = system: HSV-1 Strain F; experiment: Viral qPCR assay, HSV-1 in Vero cells; assay type: cell-based, Herpes Simplex Virus type 1; conditions: read-out: HSV1 VERO Cell (EC50)
Method: (§1) MRCS cells, Vero cells, and MeWo cells were obtained from ATCC and were maintained at 37° C./5% CO2/90% relative humidity in Minimal Essential Medium with 10% fetal bovine serum, […] L-glutamine, 100 units/ml penicillin and 100 ug/ml streptomycin. Assay plates were prepared by dispensing compounds dissolved in DMSO into wells of 384 well collagen-coated plates using an ECHO acoustic dispenser. Each compound was tested in a 10-point, serial 3-fold dilution. Controls included uninfected cells and infected cells treated only with DMSO. Assays were initiated by mixing selected cells, in suspension, with virus, and dispensing 50 μl/well infected cells to pre-plated compounds. Plates were incubated at 37° C./5% CO2/90% relative humidity for ˜72 hrs to permit genomic replication, and infected cells were lysed by the addition of an equal volume of lysis buffer (10 mM Tris-HCl, pH8, 50 mM KCl, 2 mM MgCl2, 0.45% NP-40, 0.45% Tween-20, and 100 μg/ml proteinase K). An aliquot of the lysate was transferred to a 384-well PCR plate and incubated at 56° C. for 1 hour and then at 95° C. for 10 min. Levels of a viral gene and of the cellular control, PPIA (Thermo Fisher Assay ID=Hs04194521_s1), were measured in separate 10 μL qPCR assays using TaqMan® Gene Expression Master Mix (Applied Biosystems), and an 7900HT Fast Real-Time PCR System with 384-Well Block Module. 7-point, serial 10-fold dilutions of a plasmid standard were run on each plate to generate a standard curve, and genome copies numbers were calculated by plotting experimental Ct onto linear regression of the standard curve. Viral genome copy numbers were normalized by cellular control copy number, and compound effects were normalized to the window defined by the controls. Calculated % effects were fit using a 4-parameter algorithm, and EC50 was reported.
as §1, with “gene” for “gene and of the cellular control, PPIA (Thermo Fisher Assay ID=Hs04194521_s1),”, “in” for “in separate”, “Compound effects on viral” for “Viral”, “number” for “numbers were normalized by cellular control copy number, and compound effects”
(§2) VZV: Strain Street was maintained as an infected cell stock in MRC-5 cells. It was assayed in MeWo or MRCS cells and was used at 0.04-0.1 pfu/cell. The assays were performed in growth medium. Primer-probe set was Thermo Fisher Assay ID=AIPAEXQ. HSV-1: Strain F Street was assayed in Vero or MRCS cells and was used at 0.0005-0.004 pfu/cell in growth medium. Primer-probe set was Thermo Fisher Assay ID=AIBJZIB

[4] = system: HSV2; experiment: Viral qPCR assay, HSV2 in Vero cells; assay type: cell-based, Herpes Simplex Virus type 2; conditions: read-out: HSV2 VERO Cell (EC50)
Method: as §1
as §1, with “gene” for “gene and of the cellular control, PPIA (Thermo Fisher Assay ID=Hs04194521_s1),”, “in” for “in separate”, “Compound effects on viral” for “Viral”, “number” for “numbers were normalized by cellular control copy number, and compound effects”

[5] = target: T2, varicella zoster virus DNA polymerase (Varicella-zoster virus, UniProt P09252); experiment: VZV polymerase assay (AlphaLISA); assay type: biochemical; conditions: VZV DNA polymerase 0.4 nM, 60 minutes at 37° C.
T2 construct: made in house; host or cells: SF21 insect cells (baculovirus vector)
T2 sequence (P09252 whole entry): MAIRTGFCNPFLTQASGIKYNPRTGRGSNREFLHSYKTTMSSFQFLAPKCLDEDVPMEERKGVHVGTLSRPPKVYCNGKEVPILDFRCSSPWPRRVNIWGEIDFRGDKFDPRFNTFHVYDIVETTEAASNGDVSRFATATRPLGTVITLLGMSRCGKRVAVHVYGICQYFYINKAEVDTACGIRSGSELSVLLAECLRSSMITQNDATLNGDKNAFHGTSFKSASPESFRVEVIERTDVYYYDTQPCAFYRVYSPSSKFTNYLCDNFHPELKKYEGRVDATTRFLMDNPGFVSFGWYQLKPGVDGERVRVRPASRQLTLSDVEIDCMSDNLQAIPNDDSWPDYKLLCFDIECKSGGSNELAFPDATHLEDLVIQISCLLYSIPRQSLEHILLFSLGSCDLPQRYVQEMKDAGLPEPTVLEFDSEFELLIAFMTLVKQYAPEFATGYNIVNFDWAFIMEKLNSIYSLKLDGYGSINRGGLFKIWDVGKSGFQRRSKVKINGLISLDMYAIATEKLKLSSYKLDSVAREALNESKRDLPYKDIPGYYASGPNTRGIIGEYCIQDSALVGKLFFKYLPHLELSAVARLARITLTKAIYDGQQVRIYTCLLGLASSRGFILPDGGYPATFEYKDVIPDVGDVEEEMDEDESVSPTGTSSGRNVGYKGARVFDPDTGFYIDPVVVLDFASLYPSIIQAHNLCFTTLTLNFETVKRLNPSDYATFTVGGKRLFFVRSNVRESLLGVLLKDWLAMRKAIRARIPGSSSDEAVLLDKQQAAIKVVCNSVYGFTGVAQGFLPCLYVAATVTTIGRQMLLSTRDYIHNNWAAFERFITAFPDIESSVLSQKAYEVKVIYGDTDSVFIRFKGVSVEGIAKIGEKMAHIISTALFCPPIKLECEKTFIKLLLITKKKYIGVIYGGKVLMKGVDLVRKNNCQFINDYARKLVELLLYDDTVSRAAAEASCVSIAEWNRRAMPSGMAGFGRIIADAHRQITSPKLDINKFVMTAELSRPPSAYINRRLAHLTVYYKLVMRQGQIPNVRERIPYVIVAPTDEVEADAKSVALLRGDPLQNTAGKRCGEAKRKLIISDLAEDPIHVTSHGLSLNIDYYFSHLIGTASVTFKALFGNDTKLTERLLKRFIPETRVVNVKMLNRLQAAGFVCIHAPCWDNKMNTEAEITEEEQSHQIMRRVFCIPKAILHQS
Method: Human cytomegalovirus and varicella zoster virus DNA polymerases were expressed via baculovirus vector in SF21 cells and purified. Heterodimeric nucleic acid substrate used in the herpesvirus polymerase reactions was generated by annealing a 59-mer template to a 17-mer digoxigenin-labeled primer. Polymerase (HCMV final concentration of 0.2 nM; VZV final concentration of 0.4 nM) was combined with an inhibitor compound or DMSO in assay buffer (10 mM HEPES, pH 7.5, 25 mM KCl, 25 mM NaCl, 5 mM MgCl2, 5% glycerol, 0.67 mg/ml bovine serum albuminutes, and 1 mM tris(2-carboxyethyl)phosphine), and this mixture was pre-incubated for 30 minutes at room temperature in 384-well microtiter plates. The polymerization reaction was initiated by the addition of template/primer substrate (final concentration: 1.6 nM), and dNTPs (final concentration: 24 nM dCTP, 24 nMdGTP, 16 nM dATP, 16 nM dTTP, and 0.8 nM biotin-dUTP). After 60 minutes incubation at 37° C., reactions were terminated with quench buffer (25 mM HEPES pH 7.5, 100 mM NaCl, 0.25% Tween-20, 12 mM EDTA, and 1 mg/ml bovine serum albumin). Incorporation of biotinylated UTP was detected with 2.5-ug/ml anti-DIG AlphaLISA acceptor beads and 5-10 ug/ml streptavidin AlphaLISA donor beads (Perkin Elmer). Compound effects were normalized to the window defined by the controls (DMSO only and pre-quenched wells) and were fit using a 4-parameter algorithm to report an IC50.

[6] = system: VZV; experiment: Viral qPCR assay, VZV in MRC5 cells; assay type: cell-based, varicella zoster virus; conditions: read-out: VZV MRC5 Cell (IC50)
Method: as §1
as §1, with “gene” for “gene and of the cellular control, PPIA (Thermo Fisher Assay ID=Hs04194521_s1),”, “in” for “in separate”, “Compound effects on viral” for “Viral”, “number” for “numbers were normalized by cellular control copy number, and compound effects”
as §2

[7] = system: HSV-1 Strain F; experiment: Viral qPCR assay, HSV-1 in MRC5 cells; assay type: cell-based, Herpes Simplex Virus type 1; conditions: read-out: HSV1 MRC5 Cell (EC50)
Method: as §1
as §1, with “gene” for “gene and of the cellular control, PPIA (Thermo Fisher Assay ID=Hs04194521_s1),”, “in” for “in separate”, “Compound effects on viral” for “Viral”, “number” for “numbers were normalized by cellular control copy number, and compound effects”
as §2

[8] = system: HSV2; experiment: Viral qPCR assay, HSV2 in MRC5 cells; assay type: cell-based, Herpes Simplex Virus type 2; conditions: read-out: HSV2 MRC5 Cell (EC50)
Method: as §1
as §1, with “gene” for “gene and of the cellular control, PPIA (Thermo Fisher Assay ID=Hs04194521_s1),”, “in” for “in separate”, “Compound effects on viral” for “Viral”, “number” for “numbers were normalized by cellular control copy number, and compound effects”

[9] = Human betaherpesvirus 5, AD169, MRC5, 72 h
[10] = Human alphaherpesvirus 1, Vero, 72 h
[11] = Human alphaherpesvirus 2, Vero, 72 h
[12] = Human alphaherpesvirus 3, MRC5, 72 h
[13] = Human alphaherpesvirus 1, MRC5, 72 h
[14] = Human alphaherpesvirus 2, MRC5, 72 h

Row | Compound | pIC50 [1] | pIC50 [5] | pEC50 ([2]; MRC5 cells, ~72 hrs) | pEC50 [2, 9] | other results
1 | Cn1nc(C(=O)NCc2ccc(Cl)cc2)c2c1CC(O)(C[C@H]1CCC(=O)N1)C2 (stereo partly shown) [Compound 139] | 4.30 |  | 4.00 |  | pEC50 ([3]; ~72 hrs): 4.00; pEC50 ([4]; ~72 hrs): 4.48
2 | O=C(NCc1ccc(Cl)cc1)c1nn(CCNC(=O)C2CCC2)c2c1CN(Cc1ccncc1F)C2 [Compound 69] | 6.76 | 7.07 |  |  | 
3 | CC(C)[C@H]1c2c(c(C(=O)NCc3ccc(Cl)cc3)nn2C)CN1C[C@@H]1CCC(=O)N1 [Compound 100] | 8.12 | 8.31 |  | 6.65 | pEC50 [3, 10]: 6.66; pEC50 [4, 11]: 6.71
4 | CN(CCn1nc(C(=O)NCc2ccc(Cl)cc2)c2c1CN(Cc1ccnc(F)c1)C2)C(=O)C1CCC1 [Compound 66] | 6.95 | 7.31 |  |  | 
5 | CN1CC(n2nc(C(=O)NCc3ccc(Cl)cc3)c3c2CC(C[C@@H]2CCC(=O)N2)C3)C1 (stereo partly shown) [Compound 138] | 6.77 |  | 5.73 |  | pEC50 ([3]; ~72 hrs): 5.37; pEC50 ([4]; ~72 hrs): 5.23
6 | Cn1nc(C(=O)NCc2ccc(Cl)cc2)c2c1C(CO)N(C[C@H]1CCC(=O)N1)C2 (stereo partly shown) [Compound 122] | 6.71 | 7.62 | 5.88 |  | pEC50 ([3]; ~72 hrs): 6.07
7 | CN(CCn1nc(C(=O)NCc2ccc(Cl)cc2)c2c1CN(Cc1c(F)cncc1F)C2)C(=O)C1CCC1 [Compound 63] | 7.00 | 7.12 |  |  | 
8 | Cn1nc(C(=O)NCc2ccc(Cl)cc2)c2c1CC(CC1CCC(=O)N1)C2 (single isomer, unassigned) [Compound 128] | 5.97 | 6.54 |  |  | 
9 | CN(CCn1nc(C(=O)NCc2ccc(Cl)cc2)c2c1CN(Cc1ccncc1F)C2)C(=O)C1CCC1 [Compound 68] | 6.91 | 7.23 |  |  | 
10 | C[C@@H]1c2c(C(=O)NCc3ccc(Cl)cc3)nn(C)c2CN1C[C@H]1CCC(=O)N1 [Compound 125] | 5.86 |  | 5.53 |  | pEC50 ([3]; ~72 hrs): 5.30; pEC50 ([4]; ~72 hrs): 5.09
11 | CC1c2c(c(C(=O)NCc3ccc(Cl)cc3)nn2C)CN1C[C@@H]1CCC(=O)N1 (stereo partly shown) [Compound 101] | 6.28 | 6.41 | 4.49 |  | pEC50 ([3]; ~72 hrs): 4.54
12 | Cn1nc(C(=O)NCc2ccc(Cl)cc2)c2c1C1(CCC1)N(C[C@@H]1CCC(=O)N1)C2 [Compound 123] | 5.92 | 6.05 |  | 4.83 | pEC50 [3, 10]: 4.88
13 | CC([C@@H]1CCC(=O)N1)N1Cc2c(C(=O)NCc3ccc(Cl)cc3)nn(-c3nccs3)c2C1 (single isomer, unassigned) [Compound 5] | 8.28 |  | 6.41 |  | pIC50 ([6]; ~72 hrs): 6.39; pEC50 ([7]; ~72 hrs): 6.61; pEC50 ([8]; ~72 hrs): 6.61
14 | O=C1CC[C@@H](CN2Cc3c(C(=O)NCc4ccc(Cl)cc4)nn(-c4ncccn4)c3C2)N1 [Compound 31] | 7.57 |  |  | 6.36 | pIC50 [6, 12]: 5.83; pEC50 [7, 13]: 5.98; pEC50 [8, 14]: 5.85

Continued, in another order:

Row | pIC50 [1] | pIC50 [5] | Compound | pEC50 ([2]; MRC5 cells, ~72 hrs) | pEC50 [2, 9] | other results
15 | 7.26 | 7.35 | O=C1CC[C@H](CN2Cc3c(C(=O)NCc4ccc(Cl)cc4)nn(CC4CCO4)c3C2)N1 (stereo partly shown) [Compound 39] |  | 5.80 | pEC50 [3, 10]: 4.91; pEC50 [4, 11]: 4.79
16 | 7.16 | 7.64 | O=C1CC[C@@H](CN2Cc3c(C(=O)NCc4ccc(Cl)cc4)nn(C(F)F)c3C2)N1 [Compound 46] | 6.15 |  | pEC50 ([3]; ~72 hrs): 6.67; pEC50 ([4]; ~72 hrs): 6.28
17 | 7.63 | 7.22 | O=C1CC[C@H](CN2Cc3c(C(=O)NCc4ccc(Cl)cc4)nn(CC4(F)COC4)c3C2)N1 [Compound 37] |  | 5.48 | pEC50 [3, 10]: 4.81; pEC50 [4, 11]: 4.63
18 | 7.79 | 7.99 | CC1(C(=O)NCCn2nc(C(=O)NCc3ccc(Cl)cc3)c3c2CN(C[C@H]2CCC(=O)N2)C3)CC1 [Compound 26] |  | 5.58 | pEC50 [3, 10]: 4.18
19 | 7.16 | 6.93 | O=C1CC[C@H](CN2Cc3c(C(=O)NCc4ccc(Cl)cc4)nn(Cc4nccs4)c3C2)N1 [Compound 48] |  | 5.40 | 
20 | 7.28 | 7.49 | O=C1CC[C@H](CN2Cc3c(C(=O)NCc4ccc(Cl)cc4)nn(CCN4CC(F)C4)c3C2)N1 [Compound 4] |  | 5.53 | pEC50 [3, 10]: 4.58
21 | 7.64 |  | Cc1cnc(-n2nc(C(=O)NCc3ccc(Cl)cc3)c3c2CN(C[C@H]2CCC(=O)N2)C3)s1 [Compound 11] |  | 6.58 | pIC50 [6, 12]: 6.77; pEC50 [7, 13]: 6.76; pEC50 [8, 14]: 7.30
22 | 7.64 |  | Cc1csc(-n2nc(C(=O)NCc3ccc(Cl)cc3)c3c2CN(C[C@H]2CCC(=O)N2)C3)n1 [Compound 12] |  | 6.76 | pIC50 [6, 12]: 6.66; pEC50 [7, 13]: 6.80; pEC50 [8, 14]: 7.35
